We go through eleven compounds from patent US20200055839A1 (priority 2017, published 2020).

SMILES strings stand for the structures.

The experiment has as its system NL-RLuc virus. The experiment can be described thus: Inhibition of HIV replication (NL-RLuc virus, luciferase readout in MT-2 cells). As to conditions: Human immunodeficiency virus 1, MT2, 120 h, MT-2 cells infected with NL-RLuc virus, 5 days of incubation, 10% FBS, at least 2 experiments. Format: cell-based. The text has this: Inhibition of HIV Replication:
A recombinant NL-RLuc proviral clone was constructed in which a section of the nef gene form NL4-3 was replaced with the Renilla Luciferase gene. This virus is fully infectious and can undergo multiple cycles of replication in cell culture. In addition, the luciferous reporter provides a simple and easy method for quantitating the extent of virus growth and consequently, the antiviral activity of test compounds. The plasmid pNLRLuc contains the proviral NL-Rluc DNA cloned into pUC18 at the PvuII site. The NL-RLuc virus was prepared by transfection of 293T cells with the plasmid pNLRLuc. Transfections were performed using the LipofectAMINE PLUS kit form Invitrogen (Carlsbad, Calif.) according to the manufacturer and the virus generated was titered in MT-2 cells. For susceptibility analyses, the titrated virus was used to infect MT-2 cells in the presence of compound, and after 5 days of incubation, cells were processed and quantitated for virus growth by the amount of expressed luciferase. Assay media was RPMI 1640 supplemented with 10% heat inactivated fetal bovine serum (FBS), 100 units/ml penicillin G/100 units/ml streptomycin, 10 mM HEPES buffer pH 7.55 and 2 mM L-glutamine. The results form at least 2 experiments were used to calculate the EC50 values. Luciferase was quantitated using the Dual Luciferase kit form Promega (Madison, Wis.). Susceptibility of viruses to compounds was determined by incubation in the presence of serial dilutions of the compound. The 50% effective concentration (EC50) was calculated by using the exponential form of the median effect equation where (Fa)=1/[1+(ED50/drug conc.)^m](Johnson V A, Byington R T. Infectivity Assay. In Techniques in HIV Research. ed. Aldovini A, Walker B D. 71-76. New York: Stockton Press. 1990).
One may read the EC50 as the midpoint of the concentration-response curve. The low end stands for greater potency, the high end for weaker potency. `Cc1ncc(-c2ccc(O[C@H](C)C(C)C)cn2)c(N2CCC(C)(C)CC2)c1[C@H](OC(C)(C)C)C(=O)O` [Example 319, (2S)-2-(tert-butoxy)-2-[4′-(4,4-dimethylpiperidin-1-yl)-6′-methyl-5-{[(2R)-3-methylbutan-2-yl]oxy}-[2,3′-bipyridine]-5′-yl]acetic acid]: a half-maximal effect (EC50) was put at 7 nM.
Then `Cc1ncc(-c2ccc(OCCc3c(F)cccc3F)cn2)c(N2CCC(C)(C)CC2)c1[C@H](OC(C)(C)C)C(=O)O` [Example 327, (2S)-2-(tert-butoxy)-2-{5-[2-(2,6-difluorophenyl)ethoxy]-4′-(4,4-dimethylpiperidin-1-yl)-6′-methyl-[2,3′-bipyridine]-5′-yl}acetic acid], with 5 nM.
In the case of `Cc1nc(N)c(-c2cnc(OCCc3ccc(F)cc3)c(F)c2)c(N2CCC(C)(C)CC2)c1[C@H](OC(C)(C)C)C(=O)O` [Example 115, (S)-2-(2-Amino-4-(4,4-dimethylpiperidin-1-yl)-5′-fluoro-6′-(4-fluorophenethoxy)-6-methyl-[3, 3′-bipyridin]-5-yl)-2-(tert-butoxy)acetic acid], a half-maximal response (EC50) required 1 nM.
Then `Cc1ncc(-c2ccccc2C(N)=O)c(N2CCC(C)(C)CC2)c1[C@H](OC(C)(C)C)C(=O)O` [Example 154, (2S)-2-(tert-butoxy)-2-[5-(2-carbamoylphenyl)-4-(4,4-dimethylpiperidin-1-yl)-2-methylpyridin-3-yl]acetic acid], with 52 nM; and `Cc1nc(-c2cnn(C3CC3)c2)c(-c2ccc(OCCc3ccc(F)cc3)cc2)c(N2CCC(C)(C)CC2)c1[C@H](OC(C)(C)C)C(=O)O` [Example 47, (S)-2-(tert-Butoxy)-2-(6-(1-cyclopropyl-H-pyrazol-4-yl)-4-(4,4-dimethylpiperidin-1-yl)-5-(4-(4-fluorophenethoxy)phenyl)-2-methylpyridin-3-yl)acetic acid], with 4 nM; and `COc1ccccc1COc1ccc(-c2cnc(C)c([C@H](OC(C)(C)C)C(=O)O)c2N2CCC(C)(C)CC2)nc1` [Example 357, (2S)-2-(tert-butoxy)-2-[4′-(4,4-dimethylpiperidin-1-yl)-5-[(2-methoxyphenyl)methoxy]-6′-methyl-[2,3′-bipyridine]-5′-yl]acetic acid], with 0.8 nM.
The same measure for `Cc1ncc(-c2ccc(OCCc3ccc(F)cc3)c(Cl)c2)c(N2CCC(C)(C)CC2)c1[C@H](OC(C)(C)C)C(=O)O` [Example 235, (S)-2-(tert-Butoxy)-2-(5-(3-chloro-4-(4-fluorophenethoxy)phenyl)-4-(4,4-dimethylpiperidin-1-yl)-2-methylpyridin-3-yl)acetic acid]: 2 nM; for `CCCCOc1ccc(-c2cnc(C)c([C@H](OC(C)(C)C)C(=O)O)c2N2CCC(C)(C)CC2)cn1` [Example 426, (S)-2-tert-Butoxy-2-(6′-butoxy-4-(4,4-dimethylpiperidin-1-yl)-6-methyl-3, 3′-bipyridin-5-yl)acetic acid]: 0.3 nM; for `Cc1ncc(-c2ccc(OC(C)CC(C)C)nc2)c(N2CCC(C)(C)CC2)c1[C@H](OC(C)(C)C)C(=O)O` (stereo partly drawn) [Example 439, (2S)-2-tert-Butoxy-2-(4-(4,4-dimethylpiperidin-1-yl)-6-methyl-6′-(4-methylpentan-2-yloxy)-3, 3′-bipyridin-5-yl)acetic acid]: 15 nM.
The same measure for `Cc1ncc(-c2cnc(OCCC(C)(C)C)c(F)c2)c(N2CCC(C)(C)CC2)c1[C@H](OC(C)(C)C)C(=O)O` [Example 376, (2S)-2-(tert-butoxy)-2-[6′-(3,3-dimethylbutoxy)-4-(4,4-dimethylpiperidin-1-yl)-5′-fluoro-6-methyl-[3,3′-bipyridine]-5-yl]acetic acid]: 5 nM; for `CCCCCCOc1ccc(-c2cnc(C)c([C@H](OC(C)(C)C)C(=O)O)c2N2CCC(C)(C)CC2)nc1` [Example 334, (2S)-2-(tert-butoxy)-2-[4′-(4,4-dimethylpiperidin-1-yl)-5-(hexyloxy)-6′-methyl-[2,3′-bipyridine]-5′-yl]acetic acid]: 4 nM.
